Test results taken from ChEMBL document CHEMBL1132103, “Acylcarnitine analogues as topical, microbicidal spermicides” (1999).
In brackets after ≈: the same amount, converted by molar mass. Activity calls are given as the source filed them. The rule behind the calls is not given here.

How the values were obtained:
[1] = system: Human immunodeficiency virus 1; test: In vitro inhibition of HIV-1 (RF strain) using cell-free inactivation assay at concentration of 3.2 mg/mL; assay type: functional, organism-based
[2] = system: Human immunodeficiency virus 1; test: In vitro inhibition of HIV-1 (RF strain) using cell-free inactivation assay at concentration of 0.1 mg/mL; NA: Not active; assay type: functional, organism-based
Candida albicans = test: Minimum inhibitory concentration required for growth inhibition of Candida albicans; assay type: functional
[3] = system: Human immunodeficiency virus 1; test: In vitro inhibition of HIV-1 (RF strain) using cell-free inactivation assay at concentration of 10 mg/mL; assay type: functional, organism-based
Homo sapiens [4] = species: Homo sapiens; test: In vitro spermicidal activity using spermicidal dilution at 7.6 +/- 0.4 mg/mL in the Sander-Cramer test; assay type: functional; conditions: read-out: MEC
[5] = system: Human immunodeficiency virus 1; test: In vitro inhibition of HIV-1 (RF strain) using cell-free inactivation assay at concentration of 1.0 mg/mL; assay type: functional, organism-based
[6] = system: Human immunodeficiency virus 1; test: In vitro inhibition of HIV-1 (RF strain) using cell-free inactivation assay at concentration of 0.32 mg/mL; assay type: functional, organism-based
[7] = system: Human immunodeficiency virus 1; test: In vitro inhibition of HIV-1 (RF strain) using cell-free inactivation assay at concentration of 0.032 mg/mL; NA: Not active; assay type: functional, organism-based
Homo sapiens [8] = species: Homo sapiens; test: In vitro spermicidal activity using spermicidal dilution at 48.0 +/-5.1 mg/mL in the Sander-Cramer test; assay type: functional; conditions: read-out: MEC
[9] = system: Human immunodeficiency virus 1; test: In vitro inhibition of HIV-1 (RF strain) using cell-free inactivation assay at concentration of 0.1 mg/mL; assay type: functional, organism-based
[10] = system: Human immunodeficiency virus 1; test: In vitro inhibition of HIV-1 (RF strain) using cell-free inactivation assay at concentration of 0.032 mg/mL; assay type: functional, organism-based
Homo sapiens [11] = species: Homo sapiens; test: In vitro spermicidal activity using spermicidal dilution at 4.8 +/- 0.5 mg/mL in the Sander-Cramer test; assay type: functional; conditions: read-out: MEC
Homo sapiens [12] = species: Homo sapiens; test: In vitro spermicidal activity using spermicidal dilution at 27.2 +/- 2.3 mg/mL in the Sander-Cramer test; assay type: functional; conditions: read-out: MEC
Homo sapiens [13] = species: Homo sapiens; test: In vitro spermicidal activity using spermicidal dilution at 102.4 +/- 13.5 mg/mL in the Sander-Cramer test; assay type: functional; conditions: read-out: MEC
Homo sapiens [14] = species: Homo sapiens; test: In vitro spermicidal activity using spermicidal dilution at 134.4 +/- 14.2 mg/mL in the Sander-Cramer test; assay type: functional; conditions: read-out: MEC

## CCCCCCCCCCC[C@@]1(O)C[N+](C)(C)C[C@@H](CC(=O)[O-])O1
[1]
  Activity: 2.7
[2]
  Activity: inactive
Candida albicans
  MIC: > 100 µg/mL
[3]
  Activity: 4.7
Homo sapiens [4]
  minimal effective concentration: 1400 µg/mL
[5]
  Activity: 2
[6]
  Activity: 0.8
[7]
  Activity: inactive

## CCCCCCCCCCCCC[C@@]1(O)C[N+](C)(C)C[C@@H](CC(=O)[O-])O1
Homo sapiens [8]
  minimal effective concentration: 235 µg/mL
[1]
  Activity: 3.5
[9]
  Activity: 1.5
[10]
  Activity: 0.5
Candida albicans
  MIC: 40 µg/mL (≈ 108 µM)
[3]
  Activity: 3.5
[5]
  Activity: 3.3
[6]
  Activity: 2.7

## CCCCCCCCCC[C@@]1(O)C[N+](C)(C)C[C@@H](CC(=O)[O-])O1
[1]
  Activity: 2.8
Homo sapiens [11]
  minimal effective concentration: 2300 µg/mL
[2]
  Activity: inactive
Candida albicans
  MIC: > 100 µg/mL
[3]
  Activity: > 4
[5]
  Activity: 1
[6]
  Activity: 0.8
[7]
  Activity: inactive

## CCCCCCCCCCCC[C@@]1(O)C[N+](C)(C)C[C@@H](CC(=O)[O-])O1
[1]
  Activity: > 3.5
[9]
  Activity: 0.3
[10]
  Activity: 0
Candida albicans
  MIC: 80 µg/mL (≈ 224 µM)
[3]
  Activity: > 4
[5]
  Activity: 2.8
[6]
  Activity: 2
Homo sapiens [12]
  minimal effective concentration: 407 µg/mL

## CCCCCCCCCCCCCC[C@@]1(O)C[N+](C)(C)C[C@@H](CC(=O)[O-])O1
[1]
  Activity: > 4
Homo sapiens [13]
  minimal effective concentration: 121 µg/mL
[9]
  Activity: 1.5
[10]
  Activity: 0.5
Candida albicans
  MIC: 10 µg/mL (≈ 25.9 µM)
[3]
  Activity: > 4
[5]
  Activity: 3.5
[6]
  Activity: 2.8

## CCCCCCCCCCCCCCC[C@@]1(O)C[N+](C)(C)C[C@@H](CC(=O)[O-])O1 [HEMIACYLCARNITINIUM]
Homo sapiens [14]
  minimal effective concentration: 109 µg/mL
[1]
  Activity: 3.8
[9]
  Activity: 1.5
[10]
  Activity: 0.3
Candida albicans
  MIC: 2 µg/mL (≈ 5 µM)
[3]
  Activity: > 4
[5]
  Activity: 3.2
[6]
  Activity: 2.7
